Measured values: patent publication US8030354B2, “Substituted biphenyl GPR40 modulators” (Amgen Inc., priority 2007, dated 2011)

Tests used:
GPR40 [1] = biological target: T1, GPR40 (Homo sapiens, UniProt O14842); assay: Inositol phosphate accumulation assay (A9_GPR40 cells); assay type: cell-based; parameters: expressed in transfected cells; host or cells: CHO cells stably transfected with GPR40 and aequorin; details: inositol phosphate assay, A9_GPR40 cells, 1 hour; read-out: IP3 EC50
Procedure, shortened: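 [^3H] inositol phosphate accumulation was measured by SPA after 1 h compound exposure at 37° C in HBSS/10 mM LiCl containing HSA, ending with a 20 mM formic acid quench. The GPR40-transfected A9 cells had first been labelled overnight (16 h) with 1 μCi/mL ^3H-inositol.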

GPR40 [2] = biological target: T1, GPR40; assay: Cell-based aequorin assay (CHO cells stably expressing GPR40 and aequorin); parameters: expressed in transfected cells; host or cells: CHO cells stably transfected with GPR40 and aequorin; details: activation of human GPR40, CHO cells, 0.01% HSA
Procedure, shortened: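 CHO cells stably co-expressing GPR40 and aequorin, loaded with coelenterazine (1 ug/mL, 2 h, room temperature) in H/HBSS with 20 mM Hepes and 0.01% fatty acid-free HSA. Serially diluted compounds added; luminescence recorded over 20 s. EC50 from dose-response of maximum relative light units.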

T1 sequence (O14842 whole entry): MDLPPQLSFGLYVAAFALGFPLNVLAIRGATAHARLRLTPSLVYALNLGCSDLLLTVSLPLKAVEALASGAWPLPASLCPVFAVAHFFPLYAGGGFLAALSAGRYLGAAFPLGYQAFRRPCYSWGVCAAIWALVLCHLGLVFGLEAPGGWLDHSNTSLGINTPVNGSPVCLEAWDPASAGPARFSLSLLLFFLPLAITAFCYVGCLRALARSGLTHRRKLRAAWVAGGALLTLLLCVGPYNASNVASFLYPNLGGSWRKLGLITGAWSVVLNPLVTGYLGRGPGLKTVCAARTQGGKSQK

EC50 (GPR40 [1]) [nM]	EC50 (GPR40 [2]) [nM]	SMILES
10 to 100	100 to 1000	COc1ccc(F)c(-c2ccc(COc3cccc(C(C)CC(=O)O)c3)cc2/C=C/C(C)(C)C)c1 (single isomer, unassigned) [Example 64.4, (3R)-3-(3-(((2-((1E)-3,3-Dimethyl-1-butenyl)-2′-fluoro-5′-(methyloxy)-1,1′-biphenyl-4-yl)methyl)oxy)phenyl)butanoic acid or (3S)-3-(3-(((2-((1E)-3,3-dimethyl-1-butenyl)-2′-fluoro-5′-(methyloxy)-1,1′-biphenyl-4-yl)methyl)oxy)phenyl)butanoic acid]
10 to 100	100 to 1000	COc1ccc(F)c(-c2ccc(COc3cccc(C(CC(=O)O)C4CCC4)c3)cc2C2=CCCC2(C)C)c1 (single isomer, unassigned) [Example 70.2, (3S)-3-Cyclobutyl-3-(3-(((2-(5,5-dimethyl-1-cyclopenten-1-yl)-2′-fluoro-5′-(methyloxy)-1,1′-biphenyl-4-yl)methyl)oxy)phenyl)propanoic acid or (3R)-3-cyclobutyl-3-(3-(((2-(5,5-dimethyl-1-cyclopenten-1-yl)-2′-fluoro-5′-(methyloxy)-1,1′-biphenyl-4-yl)methyl)oxy)phenyl)propanoic acid]
10 to 100	100 to 1000	CCCCC(CC(=O)O)c1cccc(OCc2ccc(-c3cc(OC)ccc3F)c(C3=CCCC3(C)C)c2)c1 (single isomer, unassigned) [Example 71.3, (3R)-3-(3-(((2-(5,5-Dimethyl-1-cyclopenten-1-yl)-2′-fluoro-5′-(methyloxy)-1,1′-biphenyl-4-yl)methyl)oxy)phenyl)heptanoic acid or (3S)-3-(3-(((2-(5,5-dimethyl-1-cyclopenten-1-yl)-2′-fluoro-5′-(methyloxy)-1,1′-biphenyl-4-yl)methyl)oxy)phenyl)heptanoic acid]
< 10	100 to 1000	COc1ccc(F)c(-c2ccc(COc3cccc(C(CC(=O)O)CC4CC4)c3F)cc2C2CCCC2(C)C)c1 (single isomer, unassigned) [Example 84.3]
< 10	100 to 1000	CCC(C)(C)C(OC)c1cc(COc2cccc(C(CC(=O)O)CC3CC3)c2)ccc1-c1cc(OC)ccc1F (single isomer, unassigned) [Example 69.42]
< 10	100 to 1000	COc1ccc(F)c(-c2ccc(COc3cccc(C(CC(=O)O)C4CC4)c3F)cc2C(C)C(C)(C)C)c1 (single isomer, unassigned) [Example 83.6]
10 to 100	100 to 1000	COc1ccc(F)c(-c2ccc(COc3cccc(C(C)CC(=O)O)c3)cc2CCC(C)(C)C)c1 (single isomer, unassigned) [Example 64.6, (3R)-3-(3-(((2-(3,3-Dimethylbutyl)-2′-fluoro-5′-(methyloxy)-1,1′-biphenyl-4-yl)methyl)oxy)phenyl)butanoic acid or (3S)-3-(3-(((2-(3,3-dimethylbutyl)-2′-fluoro-5′-(methyloxy)-1,1′-biphenyl-4-yl)methyl)oxy)phenyl)butanoic acid]
< 10	10 to 100	COc1ccc(F)c(-c2cc(F)c(COc3cccc([C@@H](CC(=O)O)C4CC4)c3)cc2[C@H]2CCCC2(C)C)c1 (single isomer, unassigned) [Example 66.44]
10 to 100	100 to 1000	COc1ccc(F)c(-c2ccc(COc3cccc(C(CC(=O)O)CC4CC4)c3)cc2C(C)(C)C)c1 (single isomer, unassigned) [Example 69.4, (3R)-4-Cyclopropyl-3-(3-(((2-(1,1-dimethylethyl)-2′-fluoro-5′-(methyloxy)-1,1′-biphenyl-4-yl)methyl)oxy)phenyl)butanoic acid or (3S)-4-cyclopropyl-3-(3-(((2-(1,1-dimethylethyl)-2′-fluoro-5′-(methyloxy)-1,1′-biphenyl-4-yl)methyl)oxy)phenyl)butanoic acid]
< 10	100 to 1000	COc1ccc(F)c(-c2ccc(COc3cccc(C(CC(=O)O)CC4CC4)c3)cc2C2CCCCCC2)c1 (single isomer, unassigned) [Example 69.1, (3R)-3-(3-(((2-Cycloheptyl-2′-fluoro-5′-(methyloxy)-1,1′-biphenyl-4-yl)methyl)oxy)phenyl)-4-cyclopropylbutanoic acid or (3S)-3-(3-(((2-cycloheptyl-2′-fluoro-5′-(methyloxy)-1,1′-biphenyl-4-yl)methyl)oxy)phenyl)-4-cyclopropylbutanoic acid]
< 10	100 to 1000	COc1ccc(F)c(-c2ccc(COc3cccc(C(CC(=O)O)CC4CC4)c3)cc2C2CCCCCCC2)c1 (single isomer, unassigned) [Example 69.13, (3R)-3-(3-(((2-Cyclooctyl-2′-fluoro-5′-(methyloxy)-1,1′-biphenyl-4-yl)methyl)oxy)phenyl)-4-cyclopropylbutanoic acid or (3S)-3-(3-(((2-cyclooctyl-2′-fluoro-5′-(methyloxy)-1,1′-biphenyl-4-yl)methyl)oxy)phenyl)-4-cyclopropylbutanoic acid]
10 to 100	100 to 1000	COc1cc(-c2ccc(COc3cccc(C(C)(C)CC(=O)O)c3)cc2C2CCCC2(C)C)c(F)cn1 (single isomer, unassigned) [Example 85.4, 3-{3-[3-((S)-2,2-Dimethyl-cyclopentyl)-4-(5-fluoro-2-methoxy-pyridin-4-yl)-benzyloxy]-phenyl}-3-methyl-butyric acid or 3-{3-[3-((R)-2,2-dimethyl-cyclopentyl)-4-(5-fluoro-2-methoxy-pyridin-4-yl)-benzyloxy]-phenyl}-3-methyl-butyric acid]
10 to 100	100 to 1000	COc1ccc(F)c(-c2ccc(COc3cccc(C(CC(=O)O)C4CC4)c3F)cc2C2CCCC2(C)C)c1 (single isomer, unassigned) [Example 99.2]
< 10	100 to 1000	COc1ccc(F)c(-c2ccc(COc3cccc(C(CC(=O)O)CC4CC4)c3F)cc2C(OC)C(C)(C)C)c1 (single isomer, unassigned) [Example 84.2]
100 to 1000	100 to 1000	CCCCOc1cc(COc2cccc([C@H](CCC)CC(=O)O)c2)ccc1-c1cc(OC)ccc1F (single isomer, unassigned) [Example 60, (3R)-3-(3-(((2-(Butyloxy)-2′-fluoro-5′-(methyloxy)-1,1′-biphenyl-4-yl)methyl)oxy)phenyl)hexanoic acid or (3S)-3-(3-(((2-(butyloxy)-2′-fluoro-5′-(methyloxy)-1,1′-biphenyl-4-yl)methyl)oxy)phenyl)hexanoic acid]
< 10	10 to 100	CCC(CC(=O)O)c1cc(F)cc(OCc2ccc(-c3cc(OC)ccc3F)c(C3CCCC3(C)C)c2)c1 (single isomer, unassigned) [Example 88.1]
100 to 1000	100 to 1000	COc1ccc(F)c(-c2ccc(COc3cccc([C@@H](CC(=O)O)C4CC4)c3)cc2C(C)(C)C)c1 (single isomer, unassigned) [Example 8, (3S)-3-Cyclopropyl-3-(3-(((2-(1,1-dimethylethyl)-2′-fluoro-5′-(methyloxy)-1,1′-biphenyl-4-yl)methyl)oxy)phenyl)propanoic acid or (3R)-3-cyclopropyl-3-(3-(((2-(1,1-dimethylethyl)-2′-fluoro-5′-(methyloxy)-1,1′-biphenyl-4-yl)methyl)oxy)phenyl)propanoic acid]
> 10000	100 to 1000	CCC(CC(=O)O)c1cccc(NCc2ccc(-c3cc(OC)ccc3F)c(C3=CCCC3(C)C)c2)c1 (single isomer, unassigned) [Example 81, (3R)-3-(3-(((2-(5,5-Dimethyl-1-cyclopenten-1-yl)-2′-fluoro-5′-(methyloxy)-1,1′-biphenyl-4-yl)methyl)amino)phenyl)pentanoic acid or (3S)-3-(3-(((2-(5,5-dimethyl-1-cyclopenten-1-yl)-2′-fluoro-5′-(methyloxy)-1,1′-biphenyl-4-yl)methyl)amino)phenyl)pentanoic acid]
10 to 100	100 to 1000	COc1ccc(F)c(-c2ccc(COc3cccc(C(C)(C)CC(=O)O)c3)cc2C2CCCC2(C)C)c1 (single isomer, unassigned) [Example 85.3, 3-(3-(((2-((1R)-2,2-Dimethylcyclopentyl)-2′-fluoro-5′-(methyloxy)-1,1′-biphenyl-4-yl)methyl)oxy)phenyl)-3-methylbutanoic acid or 3-(3-(((2-((1S)-2,2-dimethylcyclopentyl)-2′-fluoro-5′-(methyloxy)-1,1′-biphenyl-4-yl)methyl)oxy)phenyl)-3-methylbutanoic acid]
< 10	100 to 1000	CCC(CC(=O)O)c1cccc(OCc2ccc(-c3cc(OC)ccc3F)c(C(OC)C(C)(C)C)c2)c1F (single isomer, unassigned) [Example 77.4]
10 to 100	100 to 1000	COc1ccc(F)c(-c2cc(F)c(COc3cccc(C(CC(=O)O)C4CC4)c3F)cc2C2=CCCC2(C)C)c1 (single isomer, unassigned) [Example 83.16, (3S)-3-Cyclopropyl-3-(3-(((2-(5,5-dimethyl-1-cyclopenten-1-yl)-2′,5-difluoro-5′-(methyloxy)-1,1′-biphenyl-4-yl)methyl)oxy)-2-fluorophenyl)propanoic acid or (3R)-3-cyclopropyl-3-(3-(((2-(5,5-dimethyl-1-cyclopenten-1-yl)-2′,5-difluoro-5′-(methyloxy)-1,1′-biphenyl-4-yl)methyl)oxy)-2-fluorophenyl)propanoic acid]
